Measurements reported in ChEMBL document CHEMBL1201862, “PubChem BioAssay data set” (2004).
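These data come from cells grown in 96-well plates and exposed to compound for 48 hours at five concentrations. GI50 marks 50% less growth.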 Calls of active or inactive are those of the source. No stated cut-off is given here; in the data, active = GI50 up to about 1.1 µM and inactive = higher.

How the values were obtained:
Test in all cases: inhibition of tumour cell growth, NCI panel, 48 h
HT-29 = tested on: HT-29
IGROV-1 = tested on: IGROV-1
HOP-62 = tested on: HOP-62
UACC-62 = tested on: UACC-62
Malme-3M = tested on: Malme-3M
ACHN = tested on: ACHN
RPMI-8226 = tested on: RPMI-8226
KM12 = tested on: KM12
MDA-N = tested on: MDA-N
K562 = tested on: K562
HL-60 = tested on: HL-60
SK-MEL-28 = tested on: SK-MEL-28
OVCAR-8 = tested on: OVCAR-8
CAKI-1 = tested on: CAKI-1
OVCAR-3 = tested on: OVCAR-3
SK-MEL-5 = tested on: SK-MEL-5
SK-OV-3 = tested on: SK-OV-3
HOP-92 = tested on: HOP-92
SR = tested on: SR
HCT-15 = tested on: HCT-15
UACC-257 = tested on: UACC-257
MDA-MB-231 = tested on: MDA-MB-231
NCI/ADR-RES = tested on: NCI/ADR-RES
A498 = tested on: A498
SW-620 = tested on: SW-620
DU-145 = tested on: DU-145
BT-549 = tested on: BT-549
T47D = tested on: T47D
NCI-H23 = tested on: NCI-H23
PC-3 = tested on: PC-3
TK-10 = tested on: TK-10
EKVX = tested on: EKVX
COLO 205 = tested on: COLO 205
MDA-MB-435 = tested on: MDA-MB-435
OVCAR-4 = tested on: OVCAR-4
MCF7 = tested on: MCF7
SK-MEL-2 = tested on: SK-MEL-2
HCT-116 = tested on: HCT-116
NCI-H226 = tested on: NCI-H226
A549 = tested on: A549
SNB-19 = tested on: SNB-19
Hs-578T = tested on: Hs-578T
MOLT-4 = tested on: MOLT-4
SF-539 = tested on: SF-539
OVCAR-5 = tested on: OVCAR-5
UO-31 = tested on: UO-31
SNB-75 = tested on: SNB-75
U-251 = tested on: U-251
LOX IMVI = tested on: LOX IMVI
SN12C = tested on: SN12C
RXF 393 = tested on: RXF 393
NCI-H460 = tested on: NCI-H460
SF-295 = tested on: SF-295
M14 = tested on: M14
CCRF-CEM = tested on: CCRF-CEM
NCI-H522 = tested on: NCI-H522
786-0 = tested on: 786-0
SF-268 = tested on: SF-268
HCC 2998 = tested on: HCC 2998

## CC(=O)Nc1ccc(Cc2ccc3nc(O)cc(C)c3c2)cc1
HT-29
  GI50: 50.6 µM (inactive)
IGROV-1
  GI50: 61.2 µM (inactive)
HOP-62
  GI50: 33.8 µM (inactive)
UACC-62
  GI50: 31 µM (inactive)
Malme-3M
  GI50: 87.7 µM (inactive)
ACHN
  GI50: 50.8 µM (inactive)
RPMI-8226
  GI50: 17.2 µM (inactive)
KM12
  GI50: > 100 µM (inactive)
MDA-N
  GI50: > 100 µM (inactive)
K562
  GI50: > 100 µM (inactive)
HL-60
  GI50: > 100 µM (inactive)
SK-MEL-28
  GI50: > 100 µM (inactive)
OVCAR-8
  GI50: > 100 µM (inactive)
CAKI-1
  GI50: 63.5 µM (inactive)
OVCAR-3
  GI50: > 100 µM (inactive)
SK-MEL-5
  GI50: > 100 µM (inactive)
SK-OV-3
  GI50: 87.3 µM (inactive)
HOP-92
  GI50: > 100 µM (inactive)
SR
  GI50: > 100 µM (inactive)
HCT-15
  GI50: > 100 µM
UACC-257
  GI50: 67 µM (inactive)
MDA-MB-231
  GI50: 28.8 µM (inactive)
NCI/ADR-RES
  GI50: > 100 µM (inactive)
A498
  GI50: > 100 µM (inactive)
SW-620
  GI50: > 100 µM (inactive)
DU-145
  GI50: 32.5 µM (inactive)
BT-549
  GI50: > 100 µM (inactive)
T47D
  GI50: 55.3 µM (inactive)
NCI-H23
  GI50: > 100 µM (inactive)
PC-3
  GI50: 50.5 µM (inactive)
TK-10
  GI50: 40.5 µM (inactive)
EKVX
  GI50: 65.3 µM (inactive)
COLO 205
  GI50: 57.4 µM (inactive)
MDA-MB-435
  GI50: > 100 µM (inactive)
OVCAR-4
  GI50: > 100 µM (inactive)
MCF7
  GI50: 81.5 µM (inactive)
SK-MEL-2
  GI50: 22.2 µM (inactive)
HCT-116
  GI50: 83.8 µM (inactive)
NCI-H226
  GI50: > 100 µM (inactive)
A549
  GI50: > 100 µM (inactive)
SNB-19
  GI50: 63.5 µM (inactive)
Hs-578T
  GI50: 85.1 µM (inactive)
MOLT-4
  GI50: > 100 µM (inactive)
SF-539
  GI50: 68.7 µM (inactive)
OVCAR-5
  GI50: > 100 µM (inactive)
UO-31
  GI50: > 100 µM (inactive)
SNB-75
  GI50: 10.3 µM (inactive)
U-251
  GI50: 30.1 µM (inactive)
LOX IMVI
  GI50: > 100 µM (inactive)
SN12C
  GI50: 64.6 µM (inactive)
RXF 393
  GI50: 35.5 µM (inactive)
NCI-H460
  GI50: 62.1 µM (inactive)
SF-295
  GI50: 29.9 µM (inactive)
M14
  GI50: > 100 µM (inactive)
CCRF-CEM
  GI50: > 100 µM (inactive)
NCI-H522
  GI50: 48.8 µM (inactive)
786-0
  GI50: 24.3 µM (inactive)
SF-268
  GI50: > 100 µM (inactive)

## CCOC(=O)CCC(NC(=O)c1ccc(Oc2nc3ccccc3nc2C(=O)OCC)cc1)C(=O)OCC (stereo unspecified)
HT-29
  GI50: > 100 µM (inactive)
IGROV-1
  GI50: > 100 µM (inactive)
HOP-62
  GI50: 63 µM (inactive)
UACC-62
  GI50: > 100 µM (inactive)
ACHN
  GI50: > 100 µM (inactive)
RPMI-8226
  GI50: > 100 µM (inactive)
KM12
  GI50: > 100 µM (inactive)
MDA-N
  GI50: > 100 µM (inactive)
HL-60
  GI50: > 100 µM (inactive)
SK-MEL-28
  GI50: > 100 µM (inactive)
OVCAR-8
  GI50: 41.2 µM (inactive)
CAKI-1
  GI50: > 100 µM (inactive)
OVCAR-3
  GI50: > 100 µM (inactive)
SK-MEL-5
  GI50: > 100 µM (inactive)
HOP-92
  GI50: > 100 µM (inactive)
SR
  GI50: > 100 µM (inactive)
HCT-15
  GI50: > 100 µM
UACC-257
  GI50: > 100 µM (inactive)
MDA-MB-231
  GI50: 40.4 µM (inactive)
NCI/ADR-RES
  GI50: 55.1 µM (inactive)
SW-620
  GI50: > 100 µM (inactive)
DU-145
  GI50: > 100 µM (inactive)
BT-549
  GI50: > 100 µM (inactive)
T47D
  GI50: > 100 µM (inactive)
NCI-H23
  GI50: > 100 µM (inactive)
PC-3
  GI50: > 100 µM (inactive)
TK-10
  GI50: > 100 µM (inactive)
EKVX
  GI50: > 100 µM (inactive)
COLO 205
  GI50: > 100 µM (inactive)
MDA-MB-435
  GI50: > 100 µM (inactive)
OVCAR-4
  GI50: > 100 µM (inactive)
MCF7
  GI50: > 100 µM (inactive)
SK-MEL-2
  GI50: > 100 µM (inactive)
HCT-116
  GI50: 72.3 µM (inactive)
A549
  GI50: > 100 µM (inactive)
SNB-19
  GI50: 85.5 µM (inactive)
Hs-578T
  GI50: > 100 µM (inactive)
MOLT-4
  GI50: > 100 µM (inactive)
SF-539
  GI50: > 100 µM (inactive)
OVCAR-5
  GI50: > 100 µM (inactive)
UO-31
  GI50: > 100 µM (inactive)
SNB-75
  GI50: 21.5 µM (inactive)
U-251
  GI50: 71.3 µM (inactive)
HCC 2998
  GI50: > 100 µM (inactive)
LOX IMVI
  GI50: > 100 µM (inactive)
SN12C
  GI50: > 100 µM (inactive)
NCI-H460
  GI50: > 100 µM (inactive)
SF-295
  GI50: > 100 µM (inactive)
M14
  GI50: > 100 µM (inactive)
CCRF-CEM
  GI50: > 100 µM (inactive)
NCI-H522
  GI50: > 100 µM (inactive)
786-0
  GI50: 37.2 µM (inactive)
SF-268
  GI50: > 100 µM (inactive)
